According to US20050119251A1, “Nicotinamide derivatives and their use as therapeutic agents” (priority 2001, published 2005):

melting point: 49 to 51 °C
SMILES: COc1nc(N2CCN(C(=O)c3ccccc3C(F)(F)F)CC2)ccc1C(=O)NCCC1CC1 [Example 7, N-(2-cyclopropylethyl)-2-methoxy-6-(4-(2-trifluoromethylbenzoyl)piperazin-1-yl]nicotinamide]
